Laboratory results: US6177475A, “Methods of using integrin modulators for treatment of inflammation” (priority 1997, dated 2001)

Assays:
[1] = test system: MT-2 cells / K562/VCAM-1 cells (HTLV-I); assay: Syncytium formation of HTLV-I-infected MT-2 cells with K562/VCAM-1 cells; assay type: cell-based; details: 3.4 micromoles per liter; higher concentrations not tested
Text: MT-2 cells harbor the complete genome of human T cell lymphotropic virus type 1 (HTLV-I), and they transmit the virus to susceptible uninfected cells in cocultures. The transmission manifests itself as fusion of MT-2 cells with the uninfected cells, followed by syncytium formation. K562 cells transfected with VCAM-1, a ligand of the integrin VIA-4, were used as a fusion partner for MT-2 cells. MT-2 and K562/VCAM-1 cells were washed and resuspended in complete RPMI medium at a density of 2×10^6 /ml. MT2 cells were seeded into flat-bottom 96-well microtiter plates (100 microliters per well). Serial dilutions of Ajoene or of the disintegrin kistrin (final concentration) were introduced into the wells, and the plate was incubated for 30 min prior to addition of 100 microliters of K562/VCAM-1 cells. The plates were then incubated for 4 h before scoring syncytium formation.

[2] = test system: lymphocyte infiltration into the pancreata; assay: Spontaneous development of autoimmune diabetes in NOD mice (lymphocyte infiltration of pancreata); assay type: in vivo, Nonobese diabetic (NOD) mice; details: 0.3 mg/kg i.p. every other day, 9 weeks
Text: (§1) Nonobese diabetic (NOD) mice are characterized by spontaneous development of insulitis (similar to human insulin-dependent diabetes) and sialoadenitis (similar to Sjogren's disease). The development of autoirmune inflammation in these animals involves several integrin receptors, including VLA-4, CR3, and LFA-1 (CD11a/CD18). Lymphocyte infiltration into the pancreata is mediated primarily by VIA-4, whereas the predominant mechanism of lymphocyte recruitment into the salivary glands involves LFA-1.
(§2) NOD mice (age, 3 to 4 weeks old; average body weight, 10 g) were divided into three groups. Experimental animals received intraperitoneal injections of disintegrins (0.3 mg/kg per animal every other day) for 9 weeks. Control mice were administered with the vehicle.
(§3) The mice were sacrificed and subjected to autopsy. The pancreata and salivary glands were removed and frozen (-70° C.). Thin sections (5 micrometer thick) of these organs were fixed in acetone, stained with hematoxylin and eosin, and evaluated microscopically for lymphocyte infiltration (Tables 6 and 7).

[3] = test system: lymphocyte infiltration into the salivary glands; assay: Spontaneous development of autoimmune sialoadenitis in NOD mice (lymphocyte infiltration of salivary glands); assay type: in vivo, Nonobese diabetic (NOD) mice; details: 0.3 mg/kg i.p. every other day, 9 weeks
Text: as §1, §2, §3

[4] = pancreas, (+) 1-3 infiltrated islets
[5] = pancreas, (-) no infiltrating lymphocytes
[6] = (+) 1-3 small foci involving only one duct
[7] = (+++) 2 or more foci involving several ducts
[8] = (-) no infiltrating lymphocytes

Kistrin
inhibition of syncytium formation [1]: ~ 40% | development of large infiltrates in pancreatic islets [2]: completely prevented the development of large infiltrates | proportion of animals with mild infiltration of pancreatic islets [2]: increased the proportion of animals with mild infiltration of pancreatic islets | Number of mice with infiltration score (+) [2, 4]: 2 mice | Percentage of mice with infiltration score (+) [2, 4]: 40% | Number of mice with infiltration score (++) ([2]; pancreas, (++) 4 islets with moderate infiltration and/or 1-2 islets with large infiltrates): 0 mice | Number of mice with infiltration score (+++) ([2]; pancreas, (+++) 3 or more large infiltrates): 0 mice | Number of mice with infiltration score (-) [2, 5]: 3 mice | Percentage of mice with infiltration score (-) [2, 5]: 60% | Number of mice with infiltration score (+) [3, 6]: 2 mice | Percentage of mice with infiltration score (+) [3, 6]: 40.0% | Number of mice with infiltration score (++) ([3]; (++) small foci and/or 1 large focus involving several ducts): 0 mice | Number of mice with infiltration score (+++) [3, 7]: 1 mice | Percentage of mice with infiltration score (+++) [3, 7]: 20.0% | Number of mice with infiltration score (-) [3, 8]: 2 mice | Percentage of mice with infiltration score (-) [3, 8]: 40.0%
